Among the test systems are ACHN renal; COLO 205 colon; HCC-2998 colon; HOP-62 NSCLC; HS 578T breast; KM12 colon; M14 melanoma; MALME-3M melanoma; MDA-MB-231 breast; OVCAR-3 ovarian; OVCAR-4 ovarian; OVCAR-5 ovarian; SN12C renal; SR leukemia; SW-620 colon.
Common to all, as to experiment: growth of human tumour cells (NCI), 48 h

The values that follow come from PubChem BioAssay (NCI).

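Cultured in 96-well plates, cells were exposed to test compound for 48 hours across five concentrations. TGI: total growth inhibition.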

As for `O=c1cc(-c2ccc(O)c(O)c2)oc2cc(OC3OC(CO)C(O)C(O)C3O)cc(O)c12` (stereo not given), the TGI in the test with ACHN renal, in the test with COLO 205 colon, with HCC-2998 colon, with HOP-62 NSCLC, in the test with HS 578T breast and in the test with KM12 colon was above 100 µM in each case. For the same molecule, the TGI in the test on M14 melanoma, in the test on MALME-3M melanoma, in the test with MDA-MB-231 breast, in the test with OVCAR-3 ovarian, in the test on OVCAR-4 ovarian and in the test on OVCAR-5 ovarian was above 100 µM throughout. The TGI with SN12C renal, in the test on SR leukemia and in the test with SW-620 colon was above 100 µM in each case.

For `CC(=O)NNC=N/C(C#N)=C(\N)C#N`, the TGI with ACHN renal, with COLO 205 colon, in the test with HCC-2998 colon, in the test on HOP-62 NSCLC, with HS 578T breast and in the test on KM12 colon was above 100 µM in each case. Also, the TGI in the test on M14 melanoma, with MALME-3M melanoma, in the test with MDA-MB-231 breast, with OVCAR-3 ovarian, with OVCAR-4 ovarian and with OVCAR-5 ovarian was above 100 µM each time. Moreover, the TGI in the test on SN12C renal, with SR leukemia and with SW-620 colon was above 100 µM in each case.

Regarding `O=C1/C(=C/c2cccc([N+](=O)[O-])c2)CCCc2ccccc21`, the TGI came out at 26.6 µM in the test on ACHN renal; 32.8 µM with COLO 205 colon; 22 µM in the test with HCC-2998 colon; 29.3 µM with HOP-62 NSCLC; 25.9 µM with HS 578T breast; 16.5 µM in the test with KM12 colon. Also, the TGI in the test with M14 melanoma is 26.7 µM; in the test with MALME-3M melanoma it was 22.2 µM; with MDA-MB-231 breast, 34.2 µM; with OVCAR-3 ovarian, 26.5 µM; with OVCAR-4 ovarian, 33.4 µM; in the test with OVCAR-5 ovarian, 27.6 µM. The TGI came to 33.1 µM in the test on SN12C renal, 11 µM in the test with SR leukemia and 17 µM in the test with SW-620 colon.

For `O=C(/C=C/c1ccc(O)c(O)c1)NC(CO)C(=O)O` (stereo not given), the TGI with ACHN renal, in the test with COLO 205 colon, with HCC-2998 colon, with HOP-62 NSCLC, in the test with HS 578T breast and in the test on KM12 colon was above 100 µM throughout. Moreover, the TGI in the test on M14 melanoma, in the test on MALME-3M melanoma, with MDA-MB-231 breast, in the test with OVCAR-3 ovarian, in the test on OVCAR-4 ovarian and in the test on OVCAR-5 ovarian was above 100 µM throughout. Further, the TGI in the test on SN12C renal, with SR leukemia and in the test on SW-620 colon was above 100 µM in each case.

As for `Cc1sc2ncnc(NCCc3ccccc3)c2c1C`, the TGI in the test with ACHN renal is 69.2 µM; in the test on COLO 205 colon, 24.4 µM; in the test with HCC-2998 colon it was 31.1 µM; with HOP-62 NSCLC, 33.8 µM; in the test with HS 578T breast, 63.6 µM; with KM12 colon it was 29.6 µM. The TGI is 41.3 µM in the test on M14 melanoma; 52.3 µM with MALME-3M melanoma; 37.9 µM with MDA-MB-231 breast; above 100 µM with OVCAR-3 ovarian; 59 µM in the test with OVCAR-4 ovarian; 35.8 µM in the test with OVCAR-5 ovarian. Besides, the results for the TGI in the test on SN12C renal, in the test with SR leukemia and with SW-620 colon were 28.3 µM, 26.6 µM and above 100 µM, respectively.

For `O=c1nc2n(CCO)c(-c3ccccc3)c(-c3ccccc3)nc-2c(=O)[nH]1`, the TGI in the test on ACHN renal, with COLO 205 colon, in the test on HCC-2998 colon, in the test on HOP-62 NSCLC, with HS 578T breast and with KM12 colon was above 100 µM in each case. The TGI with M14 melanoma, with MALME-3M melanoma, with MDA-MB-231 breast, with OVCAR-3 ovarian, with OVCAR-4 ovarian and in the test on OVCAR-5 ovarian was above 100 µM throughout. For the same molecule, the TGI in the test on SN12C renal, in the test with SR leukemia and in the test on SW-620 colon was above 100 µM throughout.

Consider `CCN(CC)c1ccc(/C=C/C2=NN(c3cccc(S(=O)(=O)O)c3)C3(C2)C(Cl)C(=O)N3c2nc3ccccc3s2)cc1` (stereo not given), for which the TGI is 23.8 µM with ACHN renal; 31.8 µM with COLO 205 colon; 21.4 µM in the test on HCC-2998 colon; 22.9 µM in the test with HOP-62 NSCLC; above 90.2 µM in the test on HS 578T breast; 20.9 µM in the test with KM12 colon. In addition, the TGI in the test on M14 melanoma amounted to 28.1 µM; in the test on MALME-3M melanoma, 24.9 µM; in the test on MDA-MB-231 breast, 27 µM; with OVCAR-3 ovarian it was 17.4 µM; in the test with OVCAR-4 ovarian it was 9.83 µM; with OVCAR-5 ovarian it was 58.7 µM. For the same molecule, the figures for the TGI with SN12C renal, in the test on SR leukemia and with SW-620 colon were 29 µM, 7.41 µM and 53.4 µM, respectively.

With `COc1ccc(NC(=O)C2=C(SC)C(C#N)C(=O)N=C2N)cc1` (stereo not given), the TGI in the test on ACHN renal is above 100 µM; in the test on COLO 205 colon, above 100 µM; in the test on HCC-2998 colon it was above 100 µM; with HOP-62 NSCLC, above 100 µM; with HS 578T breast, above 100 µM; in the test with KM12 colon it was 8.57 µM. Further, the TGI in the test with M14 melanoma was above 100 µM; with MALME-3M melanoma, 76.8 µM; in the test with MDA-MB-231 breast it was above 100 µM; in the test on OVCAR-3 ovarian, above 100 µM; in the test on OVCAR-4 ovarian, above 100 µM; in the test on OVCAR-5 ovarian it was above 100 µM. Also, the TGI in the test on SN12C renal, with SR leukemia and in the test with SW-620 colon was above 100 µM each time.

As to `CCCCCCCCCC(=O)OCC1(CO)C/C(=C/CC(C(C)C)C(C)C)C(=O)O1` (stereo not given), the TGI with ACHN renal is above 100 µM; with COLO 205 colon, 28.7 µM; in the test on HCC-2998 colon, above 100 µM; in the test on HOP-62 NSCLC, above 100 µM; in the test on HS 578T breast it was above 100 µM; in the test with KM12 colon, 83.7 µM. For the same molecule, the TGI is above 100 µM in the test with M14 melanoma; 82.3 µM with MALME-3M melanoma; above 100 µM in the test on MDA-MB-231 breast; above 100 µM with OVCAR-3 ovarian; above 100 µM in the test on OVCAR-4 ovarian; above 100 µM in the test on OVCAR-5 ovarian. The TGI is above 100 µM in the test on SN12C renal, above 100 µM in the test with SR leukemia and 81.6 µM in the test with SW-620 colon.
